# Assay results taken from patent US12365946B2, “Compositions and methods for the diagnosis and treatment of lymphatic system disorders” (THE CHILDREN'S HOSPITAL OF PHILADELPHIA, priority 2018, dated 2025).
# How the values were obtained:
# mTOR = mTOR (Homo sapiens, UniProt P42345); conditions: cell-free assays; cited from earlier work
# [1] = test system: HDLECs expressing ARAF mutation S214P; experiment: Immunofluorescence staining and western blotting of HDLECs expressing ARAF-S214P; assay type: cell-based, human; conditions: for biochemical and morphological reversal of the effects induced by the ARAF mutation / cell morphological differences induced by ARAF-S214P: HDLECs; for VE-cadherin accumulation at the cell membrane / levels of pERK: HDLECs expressing ARAF-S214P
# From the text: We developed a cellular model to better understand and study the effects of potential ERK-activating mutations was developed by using primary lymphatic endothelial cells instead of established cell lines to capture the characteristics of mutations in the disease relevant cell type. We have retrovirally expressed wild-type and mutant versions of proteins in the human dermal lymphatic endothelial cells (HDLECs).
# The ARAF sequence, from pCDNA3.1-F2S2-ARAF-WT or -S214P constructs as previously indicated, was cut with BamHI/XhoI and introduced into the BglII/XhoI sites of a modified version of the pMSCV plasmid that contains aminoterminal FLAG and HA tags. Viral production was performed using Fugene, with 8 μg of total DNA (pMSCV-ARAF-WT or -S214P together with envelope and packaging plasmids) and 18 μl of the transfection reagent in HEK293T. After 72 h, viral supernatant was collected and filtered. HDLECs were infected by replacing the cell culture medium with the viral supernatant, supplemented with 8 μg ml^−1 Polybrene and filtered through a 0.45 μm filter. Cells were spinfected at 650 g for 90 min, and subsequently cultured for 6 h at which point the viral supernatant was replaced by standard culture medium. Transduced HDLECs were cultured for 48 h before use in experiments. Transduction efficiencies observed by HA staining were between 40% and 60%.
# Round (12 mm) coverslips (VWR) were coated with 0.1% gelatin in water for 10 min in 24-well plates (Corning), and then air-dried for 15 min. […] Cells were washed in warm serum-free Dulbecco's modified Eagle's medium and fixed in 4% paraformaldehyde. Fixed cells were washed twice with PBS and twice with 0.1% BSA in PBS. Cells were permeablized and blocked by incubation with 10% normal donkey serum (Jackson Immunoresearch) and 0.3% Triton X-100 (Sigma Aldrich) in PBS. VE-cadherin antibody (Thermo Fisher Scientific) was diluted (final concentration: 2 μg ml^−1) in 0.01% normal donkey serum, 0.1% BSA and 0.3% Triton X-100 in PBS, and staining was performed for 1 h. Coverslips were washed twice with 0.1% BSA in PBS. Goat-anti-rabbit Alexa546 (Thermo Fisher Scientific; final concentration: 8 μg ml-1) and phalloidin Alexa350 (Thermo Fisher Scientific; final concentration: 5 units ml-1) were diluted in 0.01% normal donkey serum, 0.1% BSA and 0.3% Triton X-100 in PBS, and staining was performed for 1 h. When used, HA-Tag (6E2) mouse antibody (cat. no. 2367, Cell Signaling Technology) was diluted 1:100 in 0.1% BSA and 0.3% Triton X-100 in PBS, and staining was performed for 1 h. Coverslips were washed twice with 0.1% BSA in PBS and twice with PBS. Coverslips were dipped in water to remove residual salts, and mounted to slides using Prolong Gold antifade reagent (Thermo Fisher Scientific). Image acquisition was performed on a Leica DM6000 motorized upright microscope with a Photometrics HQ2 high-resolution monochrome CCD (charge-coupled device) camera using LAS AF software (Leica Microsystems). Z-stacks were acquired at ×10 magnification. Images were further processed in the Fiji software package42. Brightness and contrast adjustments were made. Identical brightness and contrast settings were applied to all images. Fluorescence values were measured in regions of interest (ROIs) drawn to contain entire individual cells, or in ROIs drawn to contain the entire cell body but exclude the cell-cell junction. From those measured values, a value for the plasma membrane was derived (total cell-intracellular), and the ratio of plasma membrane to intracellular values was derived and plotted. Additionally, the length and width of cells were measured with the line tool and ROI manager. For both analyses, five clearly ARAF-expressing cells, as determined by HA staining, were analyzed per ×10 field. Five ×10 fields were acquired per condition per experiment. Experiments were conducted with cells from 3 independent thaws and transductions of HDLECs, for a total of 75 cells per condition. […]
# [2] = test system: ERK activation/phosphorylation in cells expressing WT and mutant BRAF or PTPN11; experiment: pERK levels in Ea.hy926 cells expressing WT and mutant BRAF or PTPN11, MEK inhibitor titration; assay type: cell-based, human; conditions: cells expressing WT and mutant BRAF or PTPN11, FIGS. 4 and 5
# From the text: A cellular model for studying the effects of potential ERK-activating mutations was developed. We have retrovirally expressed wild-type and mutant versions of proteins in the cell line Ea.hy926. The Ea.hy926 cell line is a fusion of human umbilical vein endothelial cells with a […] cell line. It is immortalized and retains some characteristics of endothelial cells.
# In an effort to identify inhibitors with greater therapeutic efficacy, we have treated cells expressing WT and mutant BRAF or PTPN11 with various MEK inhibitors. […] BRAF F486S consistently induces ERK activation over WT levels, although the specific fold increase varies from gel to gel.
# MM cell lines = conditions: units printed inside the range; cited from earlier work
# [3] = test system: zebrafish larvae overexpressing KRAS-G12D mutant in lymphatics; experiment: Zebrafish model overexpressing KRAS-G12D in lymphatics; assay type: in vivo; conditions: FIG. 19
# [4] = test system: Abl1, AKT3, c-RAF, CamK1, CDK2, c-Met; conditions: cited from earlier work
SMILES,IC50 (mTOR) [nM],biochemical and morphological reversal of the effects induced by the ARAF mutation [1],cell morphological differences induced by ARAF-S214P [1],VE-cadherin accumulation at the cell membrane [1],levels of pERK [1],"pERK levels, titration curves [2]",IC50 (MM cell lines) [nM],disorganized lymphatic branching [3],edema [3],"activity to Abl1, AKT3, c-RAF, CamK1, CDK2, c-Met, etc. [4]"
"CO[C@H]1C[C@@H]2CC[C@@H](C)[C@@](O)(O2)C(=O)C(=O)N2CCCC[C@H]2C(=O)O[C@H]([C@H](C)C[C@@H]2CC[C@@H](OCCO)[C@H](OC)C2)CC(=O)[C@H](C)/C=C(\C)[C@@H](O)[C@@H](OC)C(=O)[C@H](C)C[C@H](C)/C=C/C=C/C=C/1C [Everolimus (RAD001), Everolimus]",1.6 to 2.4,–,–,–,–,–,–,–,–,–
"O=C(NC[C@H](O)CO)c1ccncc1Nc1ccc(I)cc1F [Pimasertib (AS-703026), Pimasertib]",–,reversal,rescued,increased,reduced,reducing pERK levels in cells in a dose dependent manner,5 to 2000,improvement,decrease,–
Cn1c(=O)c(F)c(Nc2ccc(I)cc2F)c2c(=O)n(C[C@@H](O)CO)cnc21 [TAK-733],–,reversal,rescued,increased,reduced,–,–,improvement,decrease,"inactive to Abl1, AKT3, c-RAF,"
